According to ChEMBL document CHEMBL5465560, “Selectivity Literature for EUbOPEN Chemogenomic Library” (2024):

Key:
[1] = target: T1, Dual specificity mitogen-activated protein kinase kinase 4 (Homo sapiens) (UniProt P45985); experiment: Selectivity interaction (KinomeScan (DiscoverX)) EUB0000092b MAP2K4; details: at 10 µM
T1 sequence (whole entry): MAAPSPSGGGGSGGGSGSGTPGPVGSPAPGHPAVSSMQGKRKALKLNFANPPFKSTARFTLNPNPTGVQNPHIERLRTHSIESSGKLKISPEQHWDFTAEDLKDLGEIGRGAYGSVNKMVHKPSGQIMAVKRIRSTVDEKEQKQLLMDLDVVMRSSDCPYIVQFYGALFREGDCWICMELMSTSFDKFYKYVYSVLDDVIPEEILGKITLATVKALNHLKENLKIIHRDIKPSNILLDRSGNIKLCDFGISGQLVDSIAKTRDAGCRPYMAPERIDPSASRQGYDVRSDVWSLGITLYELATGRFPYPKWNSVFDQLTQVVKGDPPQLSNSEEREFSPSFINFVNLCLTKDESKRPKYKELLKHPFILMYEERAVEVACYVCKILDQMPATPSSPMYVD

[2] = target: T2, Serine/threonine-protein kinase TAO3 (Homo sapiens) (UniProt Q9H2K8); experiment: Selectivity interaction (KinomeScan (DiscoverX)) EUB0000655a TAOK3; details: at 10 µM
T2 sequence (whole entry): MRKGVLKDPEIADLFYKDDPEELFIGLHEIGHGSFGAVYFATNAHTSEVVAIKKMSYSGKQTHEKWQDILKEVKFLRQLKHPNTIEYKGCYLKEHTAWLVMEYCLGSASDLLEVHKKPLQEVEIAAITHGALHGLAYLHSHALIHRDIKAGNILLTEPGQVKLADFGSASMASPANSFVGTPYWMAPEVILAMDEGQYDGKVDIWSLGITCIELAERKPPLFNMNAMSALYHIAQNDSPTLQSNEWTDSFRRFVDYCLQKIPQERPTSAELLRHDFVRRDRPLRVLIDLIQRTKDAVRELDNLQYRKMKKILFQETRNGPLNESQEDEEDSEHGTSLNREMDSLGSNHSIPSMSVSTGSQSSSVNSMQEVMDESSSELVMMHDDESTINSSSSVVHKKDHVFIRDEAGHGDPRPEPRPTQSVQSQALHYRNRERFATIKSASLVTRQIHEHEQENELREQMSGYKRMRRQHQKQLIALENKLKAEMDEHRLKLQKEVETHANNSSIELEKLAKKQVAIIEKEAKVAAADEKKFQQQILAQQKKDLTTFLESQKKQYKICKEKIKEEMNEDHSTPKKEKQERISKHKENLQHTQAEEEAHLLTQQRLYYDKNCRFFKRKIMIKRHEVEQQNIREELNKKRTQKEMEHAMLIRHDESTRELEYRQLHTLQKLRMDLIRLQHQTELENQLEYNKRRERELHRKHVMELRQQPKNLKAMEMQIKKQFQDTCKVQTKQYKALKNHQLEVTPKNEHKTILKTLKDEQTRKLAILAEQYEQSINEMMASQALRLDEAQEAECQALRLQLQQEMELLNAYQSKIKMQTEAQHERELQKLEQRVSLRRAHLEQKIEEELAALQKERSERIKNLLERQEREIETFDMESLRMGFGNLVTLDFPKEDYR

[3] = target: T3, NUAK family SNF1-like kinase 1 (Homo sapiens) (UniProt O60285); experiment: Selectivity interaction (KinomeScan (DiscoverX)) EUB0000607a NUAK1; details: at 10 µM
T3 sequence (whole entry): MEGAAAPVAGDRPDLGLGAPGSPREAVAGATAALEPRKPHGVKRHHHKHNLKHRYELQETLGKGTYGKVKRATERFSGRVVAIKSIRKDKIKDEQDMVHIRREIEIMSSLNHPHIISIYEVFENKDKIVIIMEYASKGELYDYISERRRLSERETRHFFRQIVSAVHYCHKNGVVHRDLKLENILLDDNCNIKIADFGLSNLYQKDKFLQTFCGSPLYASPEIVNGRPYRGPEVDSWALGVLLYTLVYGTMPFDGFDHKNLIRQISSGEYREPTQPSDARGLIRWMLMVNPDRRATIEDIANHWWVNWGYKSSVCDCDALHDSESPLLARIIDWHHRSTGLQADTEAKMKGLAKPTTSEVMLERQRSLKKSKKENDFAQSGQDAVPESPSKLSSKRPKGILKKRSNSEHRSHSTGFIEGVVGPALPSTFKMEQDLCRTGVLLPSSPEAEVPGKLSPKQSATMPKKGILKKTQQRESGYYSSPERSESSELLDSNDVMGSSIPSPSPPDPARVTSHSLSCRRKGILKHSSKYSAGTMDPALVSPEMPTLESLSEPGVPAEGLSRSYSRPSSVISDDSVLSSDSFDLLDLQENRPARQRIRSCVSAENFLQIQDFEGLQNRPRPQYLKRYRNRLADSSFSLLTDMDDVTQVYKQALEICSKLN

[4] = target: Serine/threonine-protein kinase pim-2 (Homo sapiens, UniProt Q9P1W9); experiment: Selectivity interaction (KinomeScan (DiscoverX)) EUB0000695a PIM2; details: at 100 nM
Serine/threonine-protein kinase pim-2, sequence (Q9P1W9 whole entry, looked up): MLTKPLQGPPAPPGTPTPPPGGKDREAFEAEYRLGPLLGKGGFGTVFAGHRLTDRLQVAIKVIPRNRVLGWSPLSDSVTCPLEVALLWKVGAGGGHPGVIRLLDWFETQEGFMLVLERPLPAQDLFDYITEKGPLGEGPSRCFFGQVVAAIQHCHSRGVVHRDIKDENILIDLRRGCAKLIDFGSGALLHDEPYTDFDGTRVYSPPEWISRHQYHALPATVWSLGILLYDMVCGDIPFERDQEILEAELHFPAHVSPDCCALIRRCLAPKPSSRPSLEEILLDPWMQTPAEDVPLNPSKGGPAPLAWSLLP

[5] = target: Ribosomal protein S6 kinase alpha-1 (Homo sapiens, UniProt Q15418); experiment: Selectivity interaction (KinomeScan (DiscoverX)) EUB0000695a RPS6KA1; details: at 100 nM
Ribosomal protein S6 kinase alpha-1, sequence (Q15418 whole entry): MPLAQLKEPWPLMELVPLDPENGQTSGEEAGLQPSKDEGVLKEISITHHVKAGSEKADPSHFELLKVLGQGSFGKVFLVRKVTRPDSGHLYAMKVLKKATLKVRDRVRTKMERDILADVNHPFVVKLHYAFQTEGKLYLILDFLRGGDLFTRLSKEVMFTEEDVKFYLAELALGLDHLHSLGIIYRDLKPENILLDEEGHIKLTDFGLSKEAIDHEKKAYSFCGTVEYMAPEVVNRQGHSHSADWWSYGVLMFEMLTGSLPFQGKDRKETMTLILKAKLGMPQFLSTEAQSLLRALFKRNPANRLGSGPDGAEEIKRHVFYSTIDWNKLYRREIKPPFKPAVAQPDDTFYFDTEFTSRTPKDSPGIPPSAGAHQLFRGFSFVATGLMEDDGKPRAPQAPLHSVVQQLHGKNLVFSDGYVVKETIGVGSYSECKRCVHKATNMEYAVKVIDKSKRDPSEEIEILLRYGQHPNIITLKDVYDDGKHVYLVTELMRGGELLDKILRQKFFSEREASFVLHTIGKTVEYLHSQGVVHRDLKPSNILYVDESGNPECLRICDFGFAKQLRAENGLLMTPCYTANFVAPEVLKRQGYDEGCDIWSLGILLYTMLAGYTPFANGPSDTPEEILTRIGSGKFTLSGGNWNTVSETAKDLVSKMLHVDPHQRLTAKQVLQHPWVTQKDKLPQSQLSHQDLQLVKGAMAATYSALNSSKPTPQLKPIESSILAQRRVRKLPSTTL

Work on `CCC(=O)N1CCN(c2ccc(-n3c(=O)ccc4cnc5ccc(-c6cnc7ccccc7c6)cc5c43)cc2C(F)(F)F)CC1` yielded a % of control [1] of 30%.

For `CN(C)CCOc1ccc(-c2nc(-c3ccncc3)c(-c3ccc4c(c3)CC/C4=N\O)[nH]2)cc1`, the % of control [2] was 75%.

Work on `CNC(=O)Nc1ccc(-c2nc(N3CC4CCC(C3)O4)c3cnn(C4CCC5(CC4)OCCO5)c3n2)cc1` yielded a % of control [3] of 82%.

`Cc1cc(F)c(C(=O)Nc2cccc(-c3nncn3C(C)C)n2)cc1-n1cnc(C2CC2)c1` was tested, and the % of control [4] was 78% and the % of control [5] was 88%.
